In assay [1] the test system is Human colon carcinoma HCT116 cells. Briefly: Detection of antiproliferative activity (Alamar Blue assay). Conditions: HCT-116, 96 h, 4-day incubation, read-out: Cellular assay HCT116 pIC50 (converted). The assay is classed as cell-based. As to the method:
Example C.4 Detection of Antiproliferative Activity
Human colon carcinoma HCT116 cells obtained from the ATCC were cultured in McCoy's 5A medium supplemented with 2 mM L-Glutamine, 50 μg/ml gentamicin and 10% heat inactivated fetal calf serum.
Reagents used in the Alamar Blue Assay
Resazurin was purchased from Aldrich (Prod. No. 199303). Potassium ferrocyanide, potassium ferricyanide, KH2PO4 and K2HPO4 were purchased from Sigma (Prod. Nos. P9387, P8131, P5655 and P8281, respectively).
Potassium Phosphate Buffer 0.1 M (PPB) was made as follows: 2.72 gram KH2PO4 and 13.86 gram K2HPO4 were dissolved in 500 ml milli-Q H2O, the pH was adjusted to pH 7.4 and the volume was brought to 1 liter with milli-Q H2O; the buffer was filter sterilised and stored at room temperature. Resazurin stock solution (PPB-A) was prepared fresh by dissolving 45 mg resazurin in 15 ml PBS. 30 mM potassium ferricyanide (PPB-B) was prepared by dissolving 0.987 gram potassium ferricyanide in 100 ml PPB. 30 mM potassium ferrocyanide (PPB-C) was prepared by dissolving 1.266 gram potassium ferrocyanide in 100 ml PPB.
Mixture of PPB-A, PPB-B and PPB-C was prepared by mixing equal volumes of the respective solutions. Resazurin work solution (herein termed “Alamar Blue” solution) was prepared by diluting said mixture 20× (vol/vol) in PPB and filter sterilising; the Alamar Blue solution could be kept at 4° C. for a maximum of 2 weeks.
Procedure of the Alamar Blue Assay
For experiments in 384 wells plates the cells were seeded at a density of 4.5×10^3 cells/ml in Falcon 384-well culture plates (Life Technologies, Merelbeke, Belgium), black with clear bottom, in 45 μl culture medium. Cells were allowed to adhere to plastic for 24 hours. The tested compound was pre-diluted (1/50 in culture medium) and 5 μl pre-diluted compound was added to the wells. Following 4-day incubation, 10 μl of the Alamar Blue solution was added to each well and the cells were further incubated for 4 hours (HCT116) or 24 hours (PC-3) at 37° C. The fluorescence intensity was measured for each well on a Fluorescence plate reader (Fluorskan, Labsystems, 540 nm excitation and 590 nm emission)
The antiproliferative activity was calculated as percentage of remaining viable cells in treated versus control (untreated cells) conditions. Within an experiment, the result for each experimental condition is the mean of 3 replicate wells. When appropriate, the experiments were repeated to establish full concentration-response curves. […] Herein the effects of tested compounds are expressed as pIC50 (the negative log value of the IC50 value) (see Table 3).
A general note: Alamar Blue is a resazurin reagent that responds to reducing activity.

Assay [2] relates to human prostate cancer PC3 cells. Briefly: Eb1 Comet (microtubule disruption) assay. The assay is classed as cell-based. Conditions: 1 hour treatment, LAC = concentration where Eb1 foci absent in at least 50% of treated cells. The text has this:
Example C.6 Eb1 Comet (Microtubule Disruption) Assay
The Eb1 Comet assay relies on the detection of the Eb1 protein at the plus end of polymerizing microtubules (Mimori-Kiyosue, 2000) using indirect immunofluorescence. Disruption of microtubule dynamics through de-polymerization or stabilization results in a de-localization of Eb1 from the growing microtubule ends and this is visualized by the disappearance of Eb1 containing cytoplasmic foci.
Briefly, human prostate cancer PC3 cells obtained from the American Type Culture Collection were grown in 96-well plates (Greiner, cat. no. 655090) in HAM's F12 medium as recommended by the provider (ATCC). The cells were treated for 1 hour at 37° C. with compounds dissolved in DMSO (0.6% final DMSO concentration). The culture medium was then removed by aspiration and the cells were fixed by adding cold methanol (−20 C). After a 15 minutes incubation at −20° C., the cells were washed twice with DPBS (Gibco) containing 0.5% Triton X-100. Mouse Eb1 antibody (BD Transduction Laboratories, cat. no. 610534) was added to the cells (1/250 dilution in DPBS containing 1% BSA) and incubated overnight at room temperature. The antibody was subsequently removed and the cells washed twice with DPBS, 0.5% Triton X-100. Secondary goat anti-mouse antibody conjugated to Alexa 488 fluorescent dye (Molecular Probes) was added at a 1/500 dilution in DPBS, 1% BSA and incubated for 1 hour at 37° C. The cells were washed twice with DPBS, 0.5% Triton X-100 and then DPBS containing 0.5% Triton X-100 and 1/5000 Hoechst 33342 (Molecular Probes) was added. Microscopy based Eb1 foci visualization was carried out using an IN Cell Analyser 1000 (Amersham Biosciences) using a 20× objective. Compound dependent microtubule disruption was visually determined by the disappearance in Eb1 foci. The lowest active concentration (LAC) was determined as the concentration where Eb1 foci were absent in at least 50% of the treated cells. Herein the effects of tested compounds are expressed as pLAC (the negative log value of the LAC value) (see Table 3).

We go through 6 compounds from patent publication US9598396B2, “Tetrahydrophenanthridinones and tetrahydrocyclopentaquinolinones as PARP and tubulin polymerization inhibitors” (Janssen Pharmaceutica NV, priority 2008, dated 2017).

For the compound `CC(C#N)(Cc1ccccc1)c1ccc2c3c(c(=O)[nH]c2c1)CCCC3` (centres unmarked) [Co. No. 1], in assay [1], the IC50 is 355 nM.
The same measure, in the same setting: the result for `CC(C#N)(Cc1cccc(C#N)c1)c1ccc2c3c(c(=O)[nH]c2c1)CCCC3` (centres unmarked) [Co. No. 4] reads 148 nM.
In the case of `CC(C#N)(Cc1cccc(F)c1)c1ccc2c3c(c(=O)[nH]c2c1)CCCC3` (centres unmarked) [Co. No. 5], in assay [2], the “Cellular assay Eb1 pLAC” value was 7. The IC50 in assay [1] is 282 nM.
In the same order, the values of `CC(C#N)(Cc1cccc(C#N)n1)c1ccc2c3c(c(=O)[nH]c2c1)CCCC3` (centres unmarked) [Co. No. 7] are 7.5 and 58.9 nM.
For `CC(C#N)(Cc1cccc(Cl)c1)c1ccc2c3c(c(=O)[nH]c2c1)CCCC3` (centres unmarked) [Co. No. 8], the IC50 in assay [1] is 155 nM.
Take `CC(C#N)(CCOc1ccc(C#N)cc1)c1ccc2c3c(c(=O)[nH]c2c1)CCCC3` (centres unmarked) [Co. No. 17]: the IC50 in assay [1] was 204 nM.
